# Test results from patent publication US7189720B2 (H. Lundbeck A/S, priority 1999, dated 2007).
# Counter-ions that a name gives are not always drawn. Like-named read-outs stand apart in the source and are kept apart here.
# Experiments:
# human Y5 receptor = target: T1, human Y5 receptor (Homo sapiens, UniProt Q15761); test: Radioligand binding to membranes, cloned human Y5 receptor; details: read-out: Ki, nM hNPY-5
# T1 construct: expressed in transfected cells; host or cells: mouse fibroblast LM(tk-) cells, e.g. L-hY5-7 (ATCC CRL-11995)
# T1 sequence (Q15761 1-445): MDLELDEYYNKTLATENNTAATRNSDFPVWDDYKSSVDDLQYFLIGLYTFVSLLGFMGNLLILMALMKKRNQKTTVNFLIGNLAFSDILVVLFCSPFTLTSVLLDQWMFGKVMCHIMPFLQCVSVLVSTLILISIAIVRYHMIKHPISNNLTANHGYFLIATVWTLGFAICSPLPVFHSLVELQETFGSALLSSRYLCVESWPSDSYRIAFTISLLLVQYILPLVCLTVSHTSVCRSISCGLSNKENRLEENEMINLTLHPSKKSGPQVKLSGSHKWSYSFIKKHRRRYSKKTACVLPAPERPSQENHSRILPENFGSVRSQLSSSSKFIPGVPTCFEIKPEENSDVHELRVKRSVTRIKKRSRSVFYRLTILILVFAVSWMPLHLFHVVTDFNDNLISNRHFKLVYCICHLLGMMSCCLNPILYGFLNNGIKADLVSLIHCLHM
# Procedure: (§1) Binding of the compounds of the present invention to human Y1, Y2, Y4, and Y5 receptors was evaluated using stably transfected 293 or LM(tk-) cells as described above.
# (§2) Membranes were harvested from COS-7 cells 48 hours after transient transfection. Adherent cells were washed twice in ice-cold phosphate buffered saline (138 mM NaCl, 8.1 mM Na2HPO4, 2.5 mM KCl, 1.2 mM KH2PO4, 0.9 mM CaCl2, 0.5 mM MgCl2, pH 7.4) and lysed by sonication in ice-cold sonication buffer (20 mM Tris-HCl, 5 mM EDTA, pH 7.7). Large particles and debris were cleared by low speed centrifugation (200×g, 5 min, 4° C.). Membranes were collected from the supernatant fraction by centrifugation (32,000×g, 18 min, 4° C.), washed with ice-cold hypotonic buffer, and collected again by centrifugation (32,000×g, 18 min, 4° C.). The final membrane pellet was resuspended by sonication into a small volume of ice-cold binding buffer (˜1 ml for every 5 plates: 10 mM NaCl, 20 mM HEPES, 0.22 mM KH2PO4, 1.26 mM CaCl2, 0.81 mM MgSO4, pH 7.4). Protein concentration was measured by the Bradford method (Bradford, 1976) using Bio-Rad Reagent, with bovine serum albumin as a standard. Membranes were held on ice for up to one hour and used fresh, or flash-frozen and stored in liquid nitrogen.
# (§3) Membranes were prepared similarly from 293, LM(tk-), and NIH-3T3 cells.
# (§4) Membrane suspensions were diluted in binding buffer supplemented with 0.1% bovine serum albumin to yield an optimal membrane protein concentration so that ^125I-PYY (or alternative radioligand such as ^125I-NPY, ^125I-NYY3-36, or ^125I-[Leu^31Pro^34]PYY) bound by membranes in the assay was less than 10% of ^125I-PYY (or alternative radioligand) delivered to the sample (100,000 dpm/sample=0.08 nM for competition binding assays). ^125I-PYY (or alternative radioligand) and peptide competitors were also diluted to desired concentrations in supplemented binding buffer. Individual samples were then prepared in 96-well polypropylene microtiter plates by mixing ^125I-PYY (25 μL) (or alternative radioligand), competing peptides or supplemented binding buffer (25 μL), and finally, membrane suspensions (200 μL). Samples were incubated in a 30° C. water bath with constant shaking for 120 min. Incubations were terminated by filtration over Whatman GF/C filters (pre-coated with 1% polyethyleneimine and air-dried before use), followed by washing with 5 mL of ice-cold binding buffer. Filter-trapped membranes were impregnated with MeltiLex solid scintillant (Wallac, Turku, Finland) and counted for ^125I in a Wallac Beta-Plate Reader. Alternatively, incubations were carried out in GF/C filter plates (pre-coated with 1% polyethyleneimine and air-dried before use), followed by vacuum filtration and three washes of 300 μL of ice-cold binding buffer. 50 μL of UltimaGold (Packard) scintillant were added and counted for ^125I, in a Wallac MicroBeta Trilux. Non-specific binding was defined by 300 nM human NPY for all receptors except the Y4 subtypes; 100 nM human PP was used for the human Y4 and 100 nM rat PP for the rat Y4.
# human Y1 receptor = target: T2, human Y1 receptor (Homo sapiens, UniProt P25929); test: Radioligand binding to membranes, cloned human Y1 receptor; details: hNPY-1 (one cell for Y1, Y2, Y4), read-out: Ki, nM hNPY-1,2,4
# T2 construct: expressed in transfected cells; host or cells: human embryonic kidney 293 cells, e.g. 293-hY1-5 (ATCC CRL-12121)
# T2 sequence (P25929 1-384): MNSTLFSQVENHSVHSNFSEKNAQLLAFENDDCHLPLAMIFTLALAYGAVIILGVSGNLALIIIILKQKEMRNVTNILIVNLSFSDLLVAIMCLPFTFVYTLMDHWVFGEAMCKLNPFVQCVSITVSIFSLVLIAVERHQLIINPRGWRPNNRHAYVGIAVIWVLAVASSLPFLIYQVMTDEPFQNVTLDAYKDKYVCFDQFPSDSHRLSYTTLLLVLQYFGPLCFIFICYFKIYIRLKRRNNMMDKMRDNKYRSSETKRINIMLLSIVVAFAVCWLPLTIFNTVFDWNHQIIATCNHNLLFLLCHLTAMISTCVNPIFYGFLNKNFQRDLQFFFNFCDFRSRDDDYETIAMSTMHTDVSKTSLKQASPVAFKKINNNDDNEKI
# Procedure: as §1, §2, §3, §4
# human Y4 receptor = target: T3, human Y4 receptor (Homo sapiens, UniProt P50391); test: Radioligand binding to membranes, cloned human Y4 receptor; details: hNPY-4 (one cell for Y1, Y2, Y4), read-out: Ki, nM hNPY-1,2,4
# T3 construct: expressed in transfected cells; host or cells: mouse fibroblast LM(tk-) cells, e.g. L-hY4-3 (ATCC CRL-11779)
# Procedure: as §1, §2, §3, §4
# human Y2 receptor = target: T4, human Y2 receptor (Homo sapiens, UniProt P49146); test: Radioligand binding to membranes, cloned human Y2 receptor
# T4 sequence (P49146 1-381): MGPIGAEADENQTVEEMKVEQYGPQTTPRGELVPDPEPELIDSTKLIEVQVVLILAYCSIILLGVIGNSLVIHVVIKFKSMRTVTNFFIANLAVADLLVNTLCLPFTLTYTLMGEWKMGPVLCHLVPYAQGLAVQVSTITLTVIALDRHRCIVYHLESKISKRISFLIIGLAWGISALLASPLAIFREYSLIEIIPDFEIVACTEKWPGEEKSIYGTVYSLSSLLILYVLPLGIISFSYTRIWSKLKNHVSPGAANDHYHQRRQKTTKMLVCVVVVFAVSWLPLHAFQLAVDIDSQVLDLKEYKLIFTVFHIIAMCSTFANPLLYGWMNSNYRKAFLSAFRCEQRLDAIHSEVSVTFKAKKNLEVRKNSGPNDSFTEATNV
# Procedure: as §1, §2, §3, §4
# T3 sequence (P50391 whole entry): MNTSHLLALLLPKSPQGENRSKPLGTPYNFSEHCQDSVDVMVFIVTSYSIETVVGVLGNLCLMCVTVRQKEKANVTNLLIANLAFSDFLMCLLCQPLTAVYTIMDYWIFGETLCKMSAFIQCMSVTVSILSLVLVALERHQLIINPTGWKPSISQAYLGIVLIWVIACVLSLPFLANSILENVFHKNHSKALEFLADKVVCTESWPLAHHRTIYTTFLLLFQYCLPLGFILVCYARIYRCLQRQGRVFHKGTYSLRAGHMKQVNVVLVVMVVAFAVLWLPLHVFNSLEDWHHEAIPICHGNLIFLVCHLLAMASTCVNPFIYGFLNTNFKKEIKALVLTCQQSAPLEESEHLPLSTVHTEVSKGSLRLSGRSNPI
SMILES,melting point [°C],Ki (human Y5 receptor; Table 6) [nM],Ki (human Y1 receptor; Table 6) [nM],Ki (human Y4 receptor; Table 6) [nM],Ki (human Y2 receptor) [µM],Ki (human Y5 receptor; Table 5) [nM],Ki (human Y1 receptor; Table 5) [nM],Ki (human Y4 receptor; Table 5) [nM]
"O=S(=O)(NCCCCCNc1nc(-c2ccccn2)cs1)C(F)(F)F (as salt: chloride) [Example 68, 2-(5-(Trifluoromethylsulfonylamino)pentyl)amino-4-(2-pyridyl)thiazole hydrogen chloride]",63 to 65,,,,,,,
"COc1ccc(C)cc1S(=O)(=O)NCCCCCNc1nc(-c2ccncc2)cs1 (as salt: chloride) [Example 75, 2-(5-(2-Methoxy-5-methyl)phenylsulfonylamino)pentylamino-4-(4-pyridyl)thiazole hydrogen chloride]",116 to 117,,,,,,,
"COc1ccc(C)cc1S(=O)(=O)NCCCCCNc1nc(-c2cccnc2)cs1 (as salt: chloride) [Example 72, 2-(5-(2-Methoxy-5-methyl)phenylsulfonylamino)pentylamino-4-(3-pyridyl)thiazole hydrogen chloride]",119 to 120,,,,,,,
"Cc1noc(C)c1S(=O)(=O)NCCCCCNc1nc(-c2cccnc2)cs1 (as salt: chloride) [Example 71, 2-(5-(3,5-Dimethylisoxazol-4-yl)sulfonylamino)pentylamino-4-(3-pyridyl)thiazole hydrogen chloride]",114 to 115,,,,,,,
"CN(C)S(=O)(=O)NCCCCCNc1nc(-c2ccsc2)cs1 [Example 82, N,N-Dimethyl-N′-(5-{[4-(3-Thienyl)-1,3-thiazol-2-yl]amino}pentyl)sulfamide]",,,,,> 10,8.3,> 10000,> 10000
"Cc1noc(C)c1S(=O)(=O)NCCCCCNc1nc(-c2cccnc2)cs1 [Example 71, 2-(5-(3,5-Dimethylisoxazol-4-yl)sulfonylamino)pentylamino-4-(3-pyridyl)thiazole hydrogen chloride]",,,,,> 10,37,> 10000,> 10000
"COc1ccc(C)cc1S(=O)(=O)NCCCCCNc1nc2c(s1)CCSc1ccc(F)cc1-2 [Example 160, N1-{5-[(9-Fluoro-4,5-dihydrobenzo[2,3]thiepino[4,5-d][1,3]thiazol-2-yl)amino]pentyl}-2-methoxy-5-methyl-1-benzenesulfonamide]",,2.8,> 10000,> 10000,> 10,,,
"CCS(=O)(=O)NCCCCCNc1nc2c(s1)CCSc1ccccc1-2 [Example 109, N1-[5-(4,5-Dihydrobenzo[2,3]thiepino[4,5-d][1,3]thiazol-2-ylamino)pentyl]-1-ethanesulfonamide]",,3.7,> 10000,> 10000,> 10,,,
"O=S(=O)(NCCCCCNc1nc2c(s1)CCSc1ccc(F)cc1-2)c1ccccc1F [Example 161, N1-{5-[(9-Fluoro-4,5-dihydrobenzo[2,3]thiepino[4,5-d][1,3]thiazol-2-yl)amino]pentyl}-2-fluoro-1-benzenesulfonamide]",,4.9,> 10000,> 10000,> 10,,,
"COc1ccc(C)cc1S(=O)(=O)NCCCCCNc1nc(-c2ccsc2)cs1 [Example 79, N1-(5-{[4-(3-Thienyl)-1,3-thiazol-2-yl]amino}pentyl)-2-methoxy-5-methyl-1-benzenesulfonamide]",,,,,> 10,545,> 10000,> 10000
"O=S(=O)(NCCCCCNc1nc2c(s1)CCSc1ccc(F)cc1-2)c1cccs1 [Example 162, N2-{5-[(9-Fluoro-4,5-dihydrobenzo[2,3]thiepino[4,5-d][1,3]thiazol-2-yl)amino]pentyl}-2-thiophenesulfonamide]",,4.8,> 10000,> 10000,> 10,,,
"COc1ccc(C)cc1S(=O)(=O)NCCCCCNc1nc(-c2ccncc2)cs1 [Example 75, 2-(5-(2-Methoxy-5-methyl)phenylsulfonylamino)pentylamino-4-(4-pyridyl)thiazole hydrogen chloride]",,,,,> 10,5,> 10000,> 10000
"COc1ccc(C)cc1S(=O)(=O)NCCCCCNc1nc(-c2sc3ccc(Cl)cc3c2C)cs1 [Example 77, N1-(5-{[4-(5-Chloro-3-methylbenzo[b]thiophen-2-yl)-1,3-thiazol-2-yl]amino}pentyl)-2-methoxy-5-methyl-1-benzenesulfonamide]",,,,,> 10,297,> 10000,> 10000

# Continued, values first:
melting point [°C],Ki (human Y5 receptor; Table 6) [nM],Ki (human Y1 receptor; Table 6) [nM],Ki (human Y4 receptor; Table 6) [nM],Ki (human Y2 receptor) [µM],Ki (human Y5 receptor; Table 5) [nM],Ki (human Y1 receptor; Table 5) [nM],Ki (human Y4 receptor; Table 5) [nM],SMILES
60 to 63,,,,,,,,"O=S(=O)(NCCCCCNc1nc(-c2ccccn2)cs1)c1ccccc1F (as salt: chloride) [Example 61, 2-(5-(2-Fluorophenyl)sulfonylamino)pentylamino-4-(2-pyridyl)-thiazole hydrogen chloride]"
98 to 101,,,,,,,,"Cc1noc(C)c1S(=O)(=O)N[C@H]1CC[C@H](CNc2nc(-c3ccccn3)cs2)CC1 (as salt: chloride) [Example 85, trans-2-(4-(3,5-Dimethyl-4-isoxazolyl)sulfonylamino)-cyclohexylmethylamino-4-(2-pyridyl)thiazole dihydrogen chloride]"
84 to 85,,,,,,,,"O=S(=O)(NCCCCCNc1nc(-c2cccnc2)cs1)c1ccccc1F (as salt: chloride) [Example 70, 2-(5-(2-Fluorophenyl)sulfonylamino)pentylamino-4-(3-pyridyl)thiazole hydrogen chloride]"
,5.1,> 10000,> 10000,> 10,,,,"CCS(=O)(=O)NC[C@H]1CC[C@H](Nc2nc3c(s2)CCSc2ccccc2-3)CC1 [Example 107, N1-{[4-(4,5-Dihydrobenzo[2,3]thiepino[4,5-d][1,3]thiazol-2-ylamino)cyclohexyl]methyl}-1-ethanesulfonamide]"
,2.4,> 10000,> 10000,> 10,,,,"O=S(=O)(NC[C@H]1CC[C@H](Nc2nc3c(s2)CCSc2ccccc2-3)CC1)c1cccc2nsnc12 [Example 118, N4-{[4-(4,5-Dihydrobenzo[2,3]thiepino[4,5-d][1,3]thiazol-2-ylamino)cyclohexyl]methyl}-2,1,3-benzothiadiazole-4-sulfonamide]"
,,,,> 10,11,> 10000,> 10000,"COc1ccc(C)cc1S(=O)(=O)NCCCCCNc1nc(-c2cc3ccccc3s2)cs1 [Example 76, N1-{5-[(4-Benzo[b]thiophen-2-yl-1,3-thiazol-2-yl)amino]-pentyl}-2-methoxy-5-methyl-1-benzenesulfonamide]"
,,,,> 10,155,> 10000,> 10000,"O=S(=O)(NC[C@H]1CC[C@H](Nc2nc(-c3cc(-c4ccccc4)no3)cs2)CC1)c1cccc2cccnc12 [Example 81, trans-N8-[(4-{[4-(3-Phenyl-5-isoxazolyl)-1,3-thiazol-2-yl]amino}cyclohexyl)methyl]-8-quinolinesulfonamide]"
,,,,> 10,204,> 10000,> 10000,"O=S(=O)(NCCCCCNc1nc(-c2ccncc2)cs1)c1ccccc1F [Example 73, 2-(5-(2-Fluoro)phenylsulfonylamino)pentylamino-4-(4-pyridyl)thiazole hydrogen chloride]"
,,,,> 10,40,> 10000,> 10000,"COc1ccc(C)cc1S(=O)(=O)NCCCCCNc1nc(-c2ccn(S(=O)(=O)c3ccccc3)c2)cs1 [Example 80, N1-[5-({4-[1-(Phenylsulfonyl)-1H-3-pyrrolyl]-1,3-thiazol-2-yl}amino)pentyl]-2-methoxy-5-methyl-1-benzenesulfonamide]"
